From patent publication US9096531B2, “Fused imidazole derivative” (TOA EIYO LTD., priority 2010, dated 2015)

What was measured:
[1] = target: T1, human T-type calcium channels (human Cav3.2) (Homo sapiens, UniProt O95180); assay: Intracellular calcium (Fura2 fluorescence) assay in HEK293 cells stably expressing human Cav3.2; type: cell-based; settings: Fura2 fluorescence ratio after calcium chloride addition, 15 min with compound
T1 construct: expressed in transfected cells
Description: Representative compounds of the present invention were tested on the selective antagonistic effect against T-type calcium channels (Cav3.2) by way of the following Test Example. For each test, human embryonic kidney cells (HEK293 cells) in which human T-type calcium channels (human Cav3.2) were stably expressed were used.
HEK293 cells in which human Cav3.2 were stably expressed were cultured at 37° C. in Alpha-MEM containing 10% (v/v) fetal bovine serum (FBS), penicillin (100 U/mL), streptomycin (100 μg/mL) and G418 (250 μg/mL). The cells were suspended in the culture medium and seeded onto a 96-well plate, and then the cells were cultured for 24 hours. The culture medium was removed, and the culture medium was replaced with S-MEM containing 5% (v/v) FBS, calcium chloride (0.5 mmol/L), L-glutamine (2 mmol/L), L-alanine (8.9 ng/mL), L-asparagine (13.2 ng/mL), L-aspartic acid (1.33 ng/mL), L-glutamic acid (1.47 ng/mL), glycine (7.5 ng/mL), L-proline (11.5 ng/mL), L-serine (10.5 ng/mL), penicillin (100 U/mL), and streptomycin (100 μg/mL). The cells were cultured for another 24 hours. The culture medium was removed again, and the cells were washed with an assay buffer (140 mmol/L sodium chloride, 5 mmol/L potassium chloride, 0.5 mmol/L magnesium chloride, 0.5 mmol/L calcium chloride, 10 mmol/L glucose, 0.4 mmol/L magnesium sulfate, 10 mmol/L HEPES, and 250 μmol/L sulfinpyrazone, pH 7.4) that had been kept warm at 37° C. Subsequently, the assay buffer in which Fura2-AM, which is a fluorescent Ca^2+ indicator, was dissolved at 5 μM was added to the cells, and the cells were cultured at 37° C. for 30 minutes. The assay buffer containing dissolved Fura2 was removed, and the cells were washed with the assay buffer. Subsequently, the assay buffer to which a test compound had been added was added to the cells, and the cells were cultured for 15 minutes. The plate was placed in a fluorescence analyzer (Flex Station II, Molecular Devices, LLC), the baseline was measured, and then the change in the intracellular calcium concentration that was caused when an assay buffer containing 100 mmol/L calcium chloride was added, was measured (excited at 340 nm and 380 nm, and detected at 510 nm). Thus, the fluorescence intensity ratios obtainable at the respective wavelengths were calculated.
Meanwhile, the test compound solution was prepared by dissolving each of the test compounds in DMSO to a concentration of 10 mmol/L, and then adding the assay buffer to a predetermined concentration. As a control solution, DMSO was used instead of the test compounds.
The inhibitory effect value (%) of each test compound was calculated by subtracting the average value of the fluorescence intensity ratio for the period of 0 to 20 seconds after the initiation of measurement, from the average value of the fluorescence intensity ratio for the period of 45 to 50 seconds after the initiation of measurement, and comparing the activity in the presence of the test compound with the value in the control solution as the maximum activity of Cav3.2.
Curve fitting formula (Model 08: Sigmoidal Inhibition Curve, Vmax+Y2 to Y2) Y=Vmax×(1−(X^n/(K^n+X^n)))+Y2
% inhibition value=(RFU (compound)—RFU(LC))/(RFU (HC)−(RFU(LC))
HC: Average of RFU value for the period of 25 to 30 seconds after the addition of Ca^2+-containing assay buffer after the control solution treatment (for the period of 45 to 50 seconds after the initiation of measurement)
LC: Average of RFU value for the period of 25 to 30 seconds after the addition of non-Ca^2+-containing assay buffer after the control solution treatment (for the period of 45 to 50 seconds after the initiation of measurement)
The RFU in the formula represents the relative fluorescence unit.

[2] = target: T1, human T-type calcium channels (human Cav3.2); assay: Electrophysiological test (patch clamp method) in HEK293 cells stably expressing human Cav3.2; type: cell-based; settings: auto-patch clamp, peak calcium current, holding potential -80 mV, pulse of -20 mV
Description: For each test, human embryonic kidney cells (HEK293 cells) in which human T-type calcium channels (human Cav3.2) were stably expressed were used.
HEK293 cells in which human Cav3.2 were stably expressed were cultured at 37° C. in Alpha-MEM containing 10% (v/v) fetal bovine serum (FBS), penicillin (100 U/mL), streptomycin (100 μg/mL) and G418 (250 μg/mL). The cells were dissociated by Accutase (Sigma-Aldrich Co.) treatment and were used as a suspension in the culture medium. The calcium current was measured with an auto-patch clamp system (Port-a-Patch, Nanion Technologies, GmbH), by using an internal solution (50 mmol/L CsCl, 10 mmol/L NaCl, 60 mmol/L CsF, 2 mmol/L MgCl2, 20 mmol/L EGTA, 10 mmol/L HEPES/CsOH, pH 7.2) and an external solution (80 mmol/L NaCl, 1 mmol/L TEAC1, 3 mmol/L KCl, 35 mmol/L CaCl2, 10 mmol/L MgCl2, 10 mmol/L HEPES, pH 7.2).
The inhibitory effect of the compound against the peak current was measured by fixing the holding potential at −80 mV, and applying a pulse of −20 mV to the cells at an interval of 5 seconds. The compound evaluation was carried out by sequentially replacing the external solution containing the compound (1 μmol/L, 3 μmol/L, 10 μmol/L, and 50 μmol/L), and measuring the current. The inhibition ratio was calculated from the peak current value, and the IC50 value was determined by converting the inhibition ratio according to a probit analysis, and then calculating the IC50 value from an approximation formula deduced by linear regression.

T1 sequence (O95180 whole entry): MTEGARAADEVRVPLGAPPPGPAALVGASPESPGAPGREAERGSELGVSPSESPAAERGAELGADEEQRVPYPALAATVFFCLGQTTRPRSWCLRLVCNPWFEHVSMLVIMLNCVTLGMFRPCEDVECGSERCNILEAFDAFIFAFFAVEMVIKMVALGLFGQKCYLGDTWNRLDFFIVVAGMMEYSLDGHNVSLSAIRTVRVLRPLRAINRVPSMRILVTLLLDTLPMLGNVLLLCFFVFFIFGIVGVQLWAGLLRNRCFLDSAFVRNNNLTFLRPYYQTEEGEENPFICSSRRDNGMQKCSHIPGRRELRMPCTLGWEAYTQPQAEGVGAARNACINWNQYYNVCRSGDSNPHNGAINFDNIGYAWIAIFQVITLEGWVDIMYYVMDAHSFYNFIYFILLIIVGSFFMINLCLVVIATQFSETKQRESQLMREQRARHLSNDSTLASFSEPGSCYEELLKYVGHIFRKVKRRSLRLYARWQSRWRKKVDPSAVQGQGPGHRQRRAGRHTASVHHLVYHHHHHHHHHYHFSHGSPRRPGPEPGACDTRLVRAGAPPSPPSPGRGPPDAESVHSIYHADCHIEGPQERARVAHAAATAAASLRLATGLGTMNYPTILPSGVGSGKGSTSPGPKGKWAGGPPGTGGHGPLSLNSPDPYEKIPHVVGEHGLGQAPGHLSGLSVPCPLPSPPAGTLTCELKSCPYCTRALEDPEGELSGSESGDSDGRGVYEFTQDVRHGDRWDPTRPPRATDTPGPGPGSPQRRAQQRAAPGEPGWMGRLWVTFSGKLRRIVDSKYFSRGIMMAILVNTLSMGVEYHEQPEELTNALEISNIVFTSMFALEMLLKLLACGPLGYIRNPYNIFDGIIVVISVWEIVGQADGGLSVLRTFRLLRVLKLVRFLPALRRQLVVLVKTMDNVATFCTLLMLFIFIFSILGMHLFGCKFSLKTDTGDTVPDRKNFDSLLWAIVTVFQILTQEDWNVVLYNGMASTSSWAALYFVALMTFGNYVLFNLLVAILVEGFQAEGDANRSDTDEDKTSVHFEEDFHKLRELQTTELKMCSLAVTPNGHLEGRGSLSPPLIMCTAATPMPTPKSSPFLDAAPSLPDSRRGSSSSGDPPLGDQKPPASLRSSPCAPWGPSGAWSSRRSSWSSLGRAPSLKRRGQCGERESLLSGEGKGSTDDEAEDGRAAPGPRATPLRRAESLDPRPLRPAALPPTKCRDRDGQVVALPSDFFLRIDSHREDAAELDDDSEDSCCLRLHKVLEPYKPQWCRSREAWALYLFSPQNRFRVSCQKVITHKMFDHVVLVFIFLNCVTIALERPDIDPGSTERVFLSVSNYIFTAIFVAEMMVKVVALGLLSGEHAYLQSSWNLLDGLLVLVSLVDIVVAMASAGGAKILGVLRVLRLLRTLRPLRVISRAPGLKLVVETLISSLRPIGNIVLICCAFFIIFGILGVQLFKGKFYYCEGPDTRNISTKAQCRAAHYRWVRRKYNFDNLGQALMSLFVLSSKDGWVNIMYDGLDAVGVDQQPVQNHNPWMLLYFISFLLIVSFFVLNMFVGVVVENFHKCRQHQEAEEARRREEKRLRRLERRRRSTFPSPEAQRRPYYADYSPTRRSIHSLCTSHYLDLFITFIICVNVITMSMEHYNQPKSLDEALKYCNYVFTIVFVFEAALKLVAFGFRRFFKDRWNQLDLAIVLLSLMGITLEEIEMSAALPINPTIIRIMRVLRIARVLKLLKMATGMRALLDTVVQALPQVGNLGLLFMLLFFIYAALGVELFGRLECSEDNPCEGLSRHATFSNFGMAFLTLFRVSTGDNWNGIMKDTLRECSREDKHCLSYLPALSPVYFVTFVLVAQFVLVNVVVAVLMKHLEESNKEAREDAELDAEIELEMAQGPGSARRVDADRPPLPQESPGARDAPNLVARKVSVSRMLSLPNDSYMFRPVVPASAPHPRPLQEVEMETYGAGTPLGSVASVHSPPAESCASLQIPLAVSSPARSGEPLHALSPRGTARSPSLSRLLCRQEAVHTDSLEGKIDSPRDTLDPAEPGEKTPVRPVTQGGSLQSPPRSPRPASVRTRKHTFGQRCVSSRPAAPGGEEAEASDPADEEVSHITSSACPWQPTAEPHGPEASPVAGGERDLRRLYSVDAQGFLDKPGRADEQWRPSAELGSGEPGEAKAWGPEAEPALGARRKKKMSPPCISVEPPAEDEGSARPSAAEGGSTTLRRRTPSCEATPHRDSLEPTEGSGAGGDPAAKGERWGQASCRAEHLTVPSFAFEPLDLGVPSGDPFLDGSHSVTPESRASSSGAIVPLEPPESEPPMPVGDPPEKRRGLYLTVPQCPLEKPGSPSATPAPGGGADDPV

IC50 [1] [nM]	IC50 [2] [nM]	SMILES
320	1920	OC(c1ccc(OC(F)(F)F)cc1)c1nc2cc(F)ccc2[nH]1 (stereo not shown) [Example 1, (5-Fluoro-1H-benzimidazol-2-yl)-(4-trifluoromethoxyphenyl)methanol]
470		OC(c1ccc(SC(F)(F)F)cc1)c1nc2cc(F)ccc2[nH]1 (stereo not shown) [Example 3]
650		OC(c1ccc(C(F)(F)F)cc1)c1nc2cc(F)ccc2[nH]1 (stereo not shown) [Example 4]
210		OC(c1ccc(C(F)(F)F)c(F)c1)c1nc2cc(F)ccc2[nH]1 (stereo not shown) [Example 5]
590		OC(c1ccc(OC(F)(F)C(F)F)cc1)c1nc2cc(F)ccc2[nH]1 (stereo not shown) [Example 6]
100		OC(c1ccc(OC(F)(F)F)c(F)c1)c1nc2cc(F)ccc2[nH]1 (stereo not shown) [Example 12]
270		OC(c1ccc(OC(F)(F)F)c(Br)c1)c1nc2cc(F)ccc2[nH]1 (stereo not shown) [Example 13]
490		OC(c1ccc2c(c1)OC(F)(F)O2)c1nc2cc(F)ccc2[nH]1 (stereo not shown) [Example 16]
920		CCOC(c1ccc(C(F)(F)F)cc1)c1nc2cc(F)ccc2[nH]1 (stereo not shown) [Example 27]
370		CCOC(c1ccc(OC(F)(F)F)c(F)c1)c1nc2cc(F)ccc2[nH]1 (stereo not shown) [Example 29]
630		CCOC(c1ccc2c(c1)OC(F)(F)O2)c1nc2cc(F)ccc2[nH]1 (stereo not shown) [Example 32]
10	1010	OC(c1ccc(OC(F)(F)F)cc1)c1nc2cc(Cl)cnc2[nH]1 (stereo not shown) [Example 44, (6-Chloro-3H-imidazo[4,5-b]pyridin-2-yl)-(4-trifluoromethoxyphenyl)methanol]
220		OC(c1ccc(OC(F)(F)F)cc1)c1nc2ccc(Cl)nc2[nH]1 (stereo not shown) [Example 46]
590		CCCSc1ccc2[nH]c(C(O)c3ccc(OC(F)(F)F)cc3)nc2c1 (stereo not shown) [Example 47]
160		OC(c1ccc(OC(F)(F)F)cc1)c1nc2cccnc2[nH]1 (stereo not shown) [Example 49]
50		OC(c1ccc2c(c1)OC(F)(F)O2)c1nc2cc(Cl)cnc2[nH]1 (stereo not shown) [Example 50]
170	1770	CCOC(c1ccc(OC(F)(F)F)cc1)c1nc2cc(Cl)cnc2[nH]1 (stereo not shown) [Example 53]
700		CCOC(c1ccc(OCc2ccc(F)cc2)cc1)c1nc2cc(Cl)cnc2[nH]1 (stereo not shown) [Example 58]
580	1760	CCOC(c1ccc(OC(F)(F)F)cc1)c1nc2cc(F)ccc2[nH]1 (stereo not shown) [Example 70, 2-[Ethoxy(4-trifluoromethoxyphenyl)methyl]-5-fluoro-1H-benzimidazole]
780		COC(c1ccc(OC(F)(F)F)cc1)c1nc2cc(F)ccc2[nH]1 (stereo not shown) [Example 89]
960		CCOc1ccc2[nH]c(C(OCC)c3ccc(SC(F)(F)F)cc3)nc2c1 (stereo not shown) [Example 91]
370		OC(c1ccc(OC(F)(F)F)cc1)c1nc2cc(Br)ccc2[nH]1 (stereo not shown) [Example 112]
190		N#Cc1ccc2[nH]c(C(O)c3ccc(OC(F)(F)F)cc3)nc2c1 (stereo not shown) [Example 114, 2-[Hydroxy(4-trifluoromethoxyphenyl)methyl]-1H-benzimidazole-5-carbonitrile]
990		CCOC(c1ccc(OC(F)(F)F)cc1)c1nc2cc(C#N)ccc2[nH]1 (stereo not shown) [Example 115, 2-[Ethoxy(4-trifluoromethoxyphenyl)methyl]-1H-benzimidazole-5-carbonitrile]
